From article PMC10036551, “Genome mining unveils a class of ribosomal peptides with two amino termini” (Nature Communications, 2023) come the findings set out here.

The structures appear in SMILES notation. Residues, ends and D or L forms follow the SMILES beside them. *: point of attachment. X1 = C[C@@H](CN*)N(C)C

The data set is classed as physicochemical. The method, then: The HPLC-purified products were analyzed by high-resolution mass spectrometry and tandem mass spectrometry (HR-MS/MS). […] Considering the predicted functions of genes encoded by the mpa BGC, we proposed that Thr underwent conversion to Dmp. To evaluate this hypothesis, a sufficient amount of 1 was accumulated for structure determination, due to its higher post-purification yield than 2 and 3. […] NMR analyses (^1H, ^13C, ^1H-^1H COSY, ^1H-^13C HSQC and ^1H-^13C HMBC) were then conducted in HFIP-d2 and a substructure corresponding to Dmp was deduced.

For `CC[C@H](C)[C@H](NC(=O)CNC(=O)[C@@H](NC(=O)[C@H](CC(C)C)NC(=O)[C@@H](NC(=O)[C@H](CC(C)C)NC(=O)[C@H](C)NC(=O)CNC(=O)[C@@H](NC(=O)[C@@H](NC(=O)CNC(=O)[C@H](CCC(N)=O)NC(=O)[C@H](Cc1ccc(O)cc1)NC(=O)[C@H](Cc1ccccc1)NC(=O)[C@H](CO)NC(=O)[C@H](CC(=O)O)NC(=O)[C@H](Cc1c[nH]c2ccccc12)NC(=O)[C@@H](N)CO)C(C)C)[C@@H](C)CC)C(C)C)[C@@H](C)CC)C(=O)NCC(=O)N[C@@H](C)C(=O)N[C@@H](C)C(=O)N[C@@H](C)C(=O)N[C@@H](C)C(=O)NC[C@H](C)N(C)C` [compound 1] (H-SWDSFYQGVIGALVLIGIGAAAA-X1), the “solubility in commonly used NMR solvents” value is given as “only sparingly soluble” and the “solubility in hexafluoroisopropanol (HFIP)” value is on record as “highly soluble”.
